Results on five molecules are retold here after ChEMBL document CHEMBL1132038, “L-770,644: a potent and selective human beta3 adrenergic receptor agonist with improved oral bioavailability” (Bioorg Med Chem Lett, 1999).

Data set [1] concerns the target T1, Beta-2 adrenergic receptor (Homo sapiens, UniProt P07550). Kind of data set: Inhibitory activity against cloned human Beta-2 adrenergic receptor in the presence of [125I]iodocyanopindolol in CHO cells by receptor binding assay. Format: cell-based.
Target sequence in this assay (P07550 whole entry): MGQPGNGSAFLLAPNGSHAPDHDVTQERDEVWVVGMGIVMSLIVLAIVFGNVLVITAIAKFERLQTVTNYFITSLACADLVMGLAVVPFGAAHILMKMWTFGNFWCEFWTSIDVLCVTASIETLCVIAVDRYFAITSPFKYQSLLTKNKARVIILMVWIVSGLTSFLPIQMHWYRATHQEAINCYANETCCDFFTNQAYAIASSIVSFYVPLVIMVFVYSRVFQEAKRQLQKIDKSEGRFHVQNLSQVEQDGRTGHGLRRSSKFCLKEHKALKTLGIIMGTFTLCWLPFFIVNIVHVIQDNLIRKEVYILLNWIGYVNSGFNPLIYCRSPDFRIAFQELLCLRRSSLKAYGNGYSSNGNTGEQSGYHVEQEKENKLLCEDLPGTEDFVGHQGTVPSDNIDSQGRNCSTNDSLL
Data set [2] can be described thus: Oral bioavailability in dog. Format: ADME, organism-based, Canis lupus familiaris. The conditions noted are these: in vivo.
Data set [3] concerns the target T2, Beta-1 adrenergic receptor (Homo sapiens, UniProt P08588). Kind of data set: Inhibitory activity against cloned human Beta-1 adrenergic receptor in the presence of [125I]iodocyanopindolol expressed in CHO cells by receptor binding assay. Format: cell-based.
Target sequence in this assay (P08588 whole entry): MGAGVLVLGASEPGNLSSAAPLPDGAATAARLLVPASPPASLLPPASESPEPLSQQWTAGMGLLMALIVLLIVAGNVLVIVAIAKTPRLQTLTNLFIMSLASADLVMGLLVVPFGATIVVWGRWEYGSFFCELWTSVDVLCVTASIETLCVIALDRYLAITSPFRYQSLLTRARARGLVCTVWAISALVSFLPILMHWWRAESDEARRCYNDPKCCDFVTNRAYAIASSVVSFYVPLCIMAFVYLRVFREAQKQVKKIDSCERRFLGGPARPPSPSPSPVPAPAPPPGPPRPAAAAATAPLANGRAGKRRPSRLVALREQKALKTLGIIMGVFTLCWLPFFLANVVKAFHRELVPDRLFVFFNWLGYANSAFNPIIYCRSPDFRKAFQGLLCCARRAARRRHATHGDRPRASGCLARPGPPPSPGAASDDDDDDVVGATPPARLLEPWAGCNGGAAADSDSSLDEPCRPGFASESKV
For data set [4], the target named is T1, Beta-2 adrenergic receptor. Kind of data set: Adenylyl cyclase activation expressed as percent of maximal stimulation with isoproterenol at the cloned human Beta-2 adrenergic receptor at 10 uM. The format is functional.
Target sequence in this assay (P07550 whole entry, looked up): as the sequence (P07550 whole entry) above
In data set [5] the target is T3, Beta-3 adrenergic receptor (Homo sapiens, UniProt P13945). In words: Adenylyl cyclase activation expressed as percent of maximal stimulation with isoproterenol at the cloned human Beta-3 adrenergic receptor at 10 uM. The format is functional.
Target sequence in this assay (P13945 whole entry, looked up): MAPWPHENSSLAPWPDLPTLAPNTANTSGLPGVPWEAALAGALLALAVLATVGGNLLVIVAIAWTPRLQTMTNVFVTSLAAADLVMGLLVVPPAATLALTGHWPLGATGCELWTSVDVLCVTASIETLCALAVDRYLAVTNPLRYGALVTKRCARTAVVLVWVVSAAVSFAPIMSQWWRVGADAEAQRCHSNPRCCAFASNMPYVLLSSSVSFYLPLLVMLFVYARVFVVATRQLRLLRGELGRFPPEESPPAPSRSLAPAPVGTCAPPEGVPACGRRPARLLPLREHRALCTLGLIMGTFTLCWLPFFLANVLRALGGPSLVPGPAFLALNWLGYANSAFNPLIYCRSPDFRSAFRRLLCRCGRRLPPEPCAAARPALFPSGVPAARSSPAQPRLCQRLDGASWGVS
The subject of the next data set is Monkey. Kind of data set: Compound was tested for agonistic activity for glycerolemia in rhesus monkey. The settings on record: Cercopithecidae, in Macaca mulatta. The format is functional.
Data set [6] in a line: Oral bioavailability in rat. The format is ADME, organism-based. The settings on record: in vivo.
The target of data set [7] is T3, Beta-3 adrenergic receptor. Kind of data set: Agonistic activity against the cloned human Beta-3 adrenergic receptor was measured by its by its ability to stimulate adenylyl cyclase. Format: functional.
Target sequence in this assay (P13945 whole entry): as the sequence (P13945 whole entry, looked up) above
Data set [8] concerns the target T2, Beta-1 adrenergic receptor. In words: Agonistic activity against the cloned human Beta-1 adrenergic receptor was measured by its by its ability to stimulate adenylyl cyclase. Format: functional.
Target sequence in this assay (P08588 whole entry): as the sequence (P08588 whole entry) above
For data set [9], the target named is T3, Beta-3 adrenergic receptor. In words: Inhibitory activity against cloned human Beta-3 adrenergic receptor in the presence of [125I]iodocyanopindolol expressed in CHO cells by receptor binding assay. The format is cell-based.
Target sequence in this assay (P13945 whole entry): as the sequence (P13945 whole entry, looked up) above
Data set [10] deals with T2, Beta-1 adrenergic receptor. Kind of data set: Adenylyl cyclase activation expressed as percent of maximal stimulation with isoproterenol at the cloned human Beta-1 adrenergic receptor at 10 uM. Format: functional.
Target sequence in this assay (P08588 whole entry, looked up): as the sequence (P08588 whole entry) above
Data set [11] concerns the target T1, Beta-2 adrenergic receptor. In words: Agonistic activity against the cloned human Beta-2 adrenergic receptor was measured by its by its ability to stimulate adenylyl cyclase. Format: functional.
Target sequence in this assay (P07550 whole entry): as the sequence (P07550 whole entry) above
A short description of data set [12]: Oral bioavailability in dog (p.o. dosing of 0.05 M citric acid/0.05 M hydrochloric acid solution). The conditions noted are these: in vivo. Format: ADME, organism-based, Canis lupus familiaris.
A short description of data set [13]: Compound was evaluated for the half-life (t 1/2) in hours. Format: ADME, organism-based, Canis lupus familiaris. The conditions noted are these: dog, in vivo.
Data set [14] addresses T1, Beta-2 adrenergic receptor. Kind of data set: Adenylyl cyclase activation expressed as percent of maximal stimulation with isoproterenol against the cloned human Beta-2 adrenergic receptor at 10 uM. Format: functional.
Target sequence in this assay (P07550 whole entry, looked up): as the sequence (P07550 whole entry) above
The target in data set [15] is T2, Beta-1 adrenergic receptor. In words: Inhibitory activity against cloned human Beta-1 adrenergic receptor in the presence of [125I]iodocyanopindolol in CHO cells by receptor binding assay. The format is cell-based.
Target sequence in this assay (P08588 whole entry): as the sequence (P08588 whole entry) above
The target in data set [16] is T2, Beta-1 adrenergic receptor. In words: Adenylyl cyclase activation expressed as percent of maximal stimulation with isoproterenol against the cloned human Beta-1 adrenergic receptor 10 uM. Format: functional.
Target sequence in this assay (P08588 whole entry, looked up): as the sequence (P08588 whole entry) above

Turning to `O=c1n(CCCC2CCCC2)nnn1-c1ccc(S(=O)(=O)Nc2ccc(CCNC[C@H](O)c3cccnc3)cc2)cc1`, the values for the IC50 in data set [1], in data set [3] and in data set [9] were 1.6 µM, 3.4 µM and 0.092 µM, respectively. Also, the bioavailability in data set [2] and in data set [6] was 27% in each case. The Activation turned out to be 26% in data set [4], 75% in data set [5] and 33% in [10]. Further, the ED50 in the data set with Monkey was 0.21 mg/kg. The figures for the EC50 in data set [7], in data set [8] and in data set [11] were 0.013 µM, 1.9 µM and 1.8 µM, respectively.

As to `O=C1N(CCCC2CCCC2)CCN1c1ccc(S(=O)(=O)Nc2ccc(CCNC[C@H](O)c3cccnc3)cc2)cc1` [L-766892], in [12], the bioavailability turned out to be 17%. The molecule also gave a half-life in data set [13] of 3.5 h.

In the case of `CCCCCCn1nnn(-c2ccc(S(=O)(=O)Nc3ccc(CCNC[C@H](O)c4cccnc4)cc3)cc2)c1=O`, the IC50 in [1] turned out to be 3.3 µM; in [15], 5 µM. Also, the Activation is 9% in data set [14], 67% in data set [5] and 19% in data set [16]. The molecule further displayed an EC50 in data set [7] of 0.03 µM.

Regarding `CCCCCCCCn1nnn(-c2ccc(S(=O)(=O)Nc3ccc(CCNC[C@H](O)c4cccnc4)cc3)cc2)c1=O`, the values for the IC50 in [1] and in [15] were 0.57 µM and 1.4 µM, respectively. The molecule further came in with an Activation in data set [5] of 57%. Moreover, the EC50 in data set [7] was found to be 0.0063 µM; in data set [8] it was 0.37 µM.

Consider `CCCCCCn1ccn(-c2ccc(S(=O)(=O)Nc3ccc(CCNC[C@H](O)c4cccnc4)cc3)cc2)c1=O` [L-764646], for which the bioavailability in data set [12] was determined as 12%. Also, the half-life in [13] is 3.6 h.

A word on the IC50: it is the point on the concentration scale where inhibition reaches its midpoint. The term bioavailability denotes the share of a dose that reaches the circulation, judged against a reference dose that is usually intravenous. As usually defined, the ED50 is the dose that gives a 50% effect, or the effect in half of the subjects. By EC50 is commonly meant the concentration giving half of the maximal effect. As a reminder, the half-life is the time needed for the level to fall by half in the phase considered.
